These results are taken from PubChem BioAssay AID1959 (Broad Institute, 2009).

Calls of active or inactive are those of the source.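 The calls were made as follows: active = growth-inhibition EC50 no more than tenfold above the top tested dose; inconclusive = flat fit between 30% and 70% inhibition, or unreliable fit; inactive = EC50 more than tenfold above the top tested dose.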 Some results are limits rather than exact numbers.

This assay has as its system E. coli NEB5alpha growth, BacTiter-Glo luminescence, 4 h. Nature of the assay: antibacterial activity against E. coli NEB5alpha – luminescence, counter-screen for MEX-5/POS-1 RNA-binding inhibitor project, dose response (AID 1959).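 Also: pUC19-transformed ampicillin-resistant cells grown in LB with ampicillin.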 A general note: A counterscreen serves to expose hits that act by an unwanted route or on another target.
On to `Cc1ccc(S(=O)(=O)CCSc2nc(C)cc(C(F)(F)F)c2C#N)cc1`, for which the EC50 (in general, the concentration that produces a half-maximal response) is > 11 µM (inactive).

For the compound `Cc1cc(NC(=O)/C(C#N)=C/c2ccc(-c3ccc(SC(F)F)cc3)o2)n(-c2ccccc2)n1`, the EC50 was > 11 µM (inactive).

With `Cc1[nH]nc(NNC(=O)c2ccccc2)c1[N+](=O)[O-]`, the EC50 is > 11 µM (inactive).

Regarding `CCOc1ccc(N2C(=O)S/C(=C\c3cccn3C)C2=O)cc1`, the EC50 is > 11 µM (inactive).

`O=C1N=C(N2CCOCC2)S/C1=C\c1ccc(-c2ccccc2Cl)o1`: the EC50 was > 11 µM (inactive).

Turning to `COC(=O)CCCC1=CC2=CC(=O)C(C)(OC(=O)CCc3ccccc3)C(=O)C2=CO1` (centres undefined), the EC50 is > 11 µM (inactive).

Consider `CNCc1ccccc1Sc1ccc(O)c(O)c1`, for which the EC50 was > 11 µM (inactive).

`CCCOc1ccc(/C=c2\sc3nc(-c4ccco4)nn3c2=O)cc1OCC`: the EC50 was > 11 µM (inactive).

Take `CN(C)c1ccc(/C=C/C(=O)c2cccc(Br)c2)cc1`: the EC50 is > 11 µM (inactive).

With `COc1ccccc1Nc1nc2nonc2nc1N1CCCCC1C` (centres undefined), the EC50 was > 11 µM (inactive).

`O=C(O)c1ccccc1N/N=C/c1c(Sc2nnnn2-c2ccccc2)nc2ccccn2c1=O`: the EC50 was > 11 µM (inactive).

In the case of `CC1(C)CC(=O)C2=C(C1)OC(N)=C(C#N)C2c1ccccc1` (centres undefined), the EC50 is > 11 µM (inactive).

In the case of `CN1C=C/C(=C\c2cc[n+](C)c3ccccc23)c2ccccc21`, the EC50 is > 11 µM (inactive).

For `COc1ccc(/C=C(\C#N)C(=O)NCC2CCCO2)cc1OC` (centres undefined), the EC50 is > 11 µM (inactive).

In the case of `O=C(O)c1ccc(N/N=C/C2=C(N3CCOCC3)C(=C\c3ccccc3)/CC2)cc1`, the EC50 was > 11 µM (inactive).

Turning to `CCN(CC)c1ccc(C=N/C(C#N)=C(\N)C#N)cc1`, the EC50 is > 11 µM (inactive).

With `CC1=NN(c2cccc(C(=O)O)c2)C(=O)/C1=C\C=C\c1ccco1`, the EC50 was > 11 µM (inactive).

As to `Cc1ccn2cc(-c3ccc(O)c(O)c3)nc2c1`, the EC50 was > 11 µM (inactive).

For the compound `NC(=O)c1snnc1-c1ccccc1`, the EC50 was > 11 µM (inactive).

Regarding `CCN1C(=O)/C(=C2/C=Cc3ccccc3N2C)OC1=S`, the EC50 is > 11 µM (inactive).

On to `Cc1ccc2cc(/C=C3\N=C(c4ccccc4)OC3=O)c(N3CCOCC3)nc2c1`, for which the EC50 is > 11 µM (inactive).

For `CN1CCc2c(sc3c2C(=O)NC(c2ccccn2)N3)C1` (centres undefined), the EC50 was > 11 µM (inactive).

`N#Cc1cc(NC(=O)c2ccc(F)cc2)c(=O)n2c1[nH]c1ccccc12`: the EC50 is > 11 µM (inactive).

For `Cc1cc(/C=C2/C(=O)NC(=O)N(c3ccccc3)C2=O)c(C)n1-c1ccc(F)cc1`, the EC50 was > 11 µM (inactive).

For the compound `O=C1/C(=C/c2ccc(Br)cc2)Oc2cc(O)ccc21`, the EC50 was > 11 µM (inactive).

On to `Cc1nnc(N2C(=O)C(O)=C(C(=O)c3ccco3)C2c2ccc(F)cc2)s1` (centres undefined), for which the EC50 is > 11 µM (inactive).

With `COc1cccc(C2C3CN(C)CC=C3C(C#N)=C(N)C2(C#N)C#N)c1OC` (centres undefined), the EC50 is > 11 µM (inactive).

Regarding `CC(=O)Nc1ccc(S(=O)(=O)NNC(=O)C(=O)NNc2ccccn2)cc1`, the EC50 is > 11 µM (inactive).

For `CCOC(=O)c1cc2c(=O)n3ccccc3nc2n(C(C)C)c1=NC(=O)c1ccncc1`, the EC50 was > 11 µM (inactive).

On to `COCCCNC(=O)C(C#N)c1nc2ccccc2nc1N1CCCC1` (centres undefined), for which the EC50 was > 11 µM (inactive).

`CCCCC1=CC2=CC(=O)C(C)(OC(=O)c3ccco3)C(=O)C2=CO1` (centres undefined): the EC50 is > 11 µM (inactive).

As for `COc1cc(C(=O)NC(c2ccccc2)c2ccccc2)cc(OC)c1C`, the EC50 was > 11 µM (inactive).

Consider `CCN(CC)C(=O)CNc1ccc(C(F)(F)F)cc1[N+](=O)[O-]`, for which the EC50 was > 11 µM (inactive).

Take `Cn1c(=O)c(-c2cc(=O)[nH][nH]2)c(O)c2ccccc21`: the EC50 is > 11 µM (inactive).

`Cc1cccn2c(=O)c3cc(C(=O)NC4CCCCC4)c(=N)n(Cc4ccccc4)c3nc12`: the EC50 is > 11 µM (inactive).

As to `CC1=C(C#N)C(=O)NC(=O)/C1=C\c1ccc(-c2cc(C)c(C)cc2[N+](=O)[O-])o1`, the EC50 is > 11 µM (inactive).

With `Cc1ccc(CS(=O)Cc2ccc(C(=O)N3CCN(c4ccccc4)CC3)o2)cc1` (centres undefined), the EC50 was > 11 µM (inactive).

As to `CCn1cc(C=C2C(=O)N(C)C(=O)N(C)C2=O)c2ccccc21`, the EC50 was > 11 µM (inactive).

`O=C(N/N=C/c1ccc(-c2cccc([N+](=O)[O-])c2)o1)c1ccc([N+](=O)[O-])cc1`: the EC50 is > 11 µM (inactive).

Regarding `C[C@H]1c2cccc(O)c2C(O)=C2C(=O)[C@]3(O)C(O)=C(C(N)=O)C(=O)[C@@H](N(C)C)C3[C@@H](O)C21` (some centres undefined), the EC50 is 4.58 µM.

As to `COc1cc(OC)c2c(O)c3c(c(-c4c5c(c(O)c6c(OC)cc(OC)cc46)CO[C@@H](C)[C@H]5O)c2c1)[C@H](O)[C@H](C)OC3`, the EC50 is > 11 µM (inactive).

Consider `O=C(O)CCNc1ccc(NCCC(=O)O)c2c1C(=O)c1ccccc1C2=O`, for which the EC50 is > 11 µM (inactive).

With `COc1ccc2c3c([nH]c2c1)C1CC2C(CC(O)C(OC)C2C(=O)O)CN1CC3` (centres undefined), the EC50 was > 11 µM (inactive).

In the case of `CCOC(=O)c1ccc(N/C=C2\CCCCC2=O)cc1`, the EC50 was > 11 µM (inactive).

With `O=C(N/N=C/c1c(O)ccc2ccccc12)Nc1ccccc1`, the EC50 is > 11 µM (inactive).

In the case of `COCCn1c(N)c(NCc2ccccc2)c(=O)[nH]c1=O`, the EC50 was > 11 µM (inactive).

Regarding `c1ccc(-c2cn3nc(-c4ccccc4)c(-c4ccccc4)nc3n2)cc1`, the EC50 was > 11 µM (inactive).

For `Cc1nc2ccccc2c2oc(C(=O)Nc3ccc4c(c3)OCCO4)cc12`, the EC50 was > 11 µM (inactive).

Take `CN(C)C1=NC(=O)/C(=C/c2ccc(-c3ccc(S(N)(=O)=O)cc3)o2)S1`: the EC50 is > 11 µM (inactive).

Consider `COc1ccccc1N1C(=O)S/C(=C\c2ccc(C)s2)C1=O`, for which the EC50 is > 11 µM (inactive).

For the compound `Cc1nc(S/C(=C/c2ccc(-c3cc(Cl)ccc3C)o2)C(=O)O)n[nH]1`, the EC50 is > 11 µM (inactive).

Turning to `CCN1C=CC2=C(C#N)C(N)C(C#N)(C#N)C(c3ccccc3C(F)(F)F)C2C1` (centres undefined), the EC50 is > 11 µM (inactive).

As for `COC(=O)[C@@H]1[C@H]2C[C@H]3c4[nH]c5ccccc5c4CCN3C[C@@H]2CC[C@@H]1O`, the EC50 is > 11 µM (inactive).

As for `Cc1ccc(N=Nc2[nH]c3ccccc3c2O)cc1`, the EC50 is > 11 µM (inactive).

Turning to `O=c1[nH]c(/C=C\c2ccc(O)c(O)c2)nc(O)c1[N+](=O)[O-]`, the EC50 was > 11 µM (inactive).

Consider `CN1C(=O)/C(=C/c2ccc(N3CCCCCC3)o2)C(=O)NC1=S`, for which the EC50 is > 11 µM (inactive).

As to `CCOc1cc(/C=C2\C(=N)N3N=C(S(C)(=O)=O)SC3=NC2=O)ccc1OCCOc1cccc(OC)c1`, the EC50 was > 11 µM (inactive).

For `COc1cc(/C=N/c2oc(-c3ccccc3)cc2C#N)ccc1O`, the EC50 is > 11 µM (inactive).

As for `CCCN1C(=O)/C(=C/c2ccc(C)o2)SC1=Nc1ccc(OC)cc1`, the EC50 is > 11 µM (inactive).

Regarding `COc1ccccc1NC(=O)c1sc2nc(Cc3ccccc3)cc(C(F)(F)F)c2c1N`, the EC50 is > 11 µM (inactive).

For `Cc1ccc[n+](-c2[nH]c(=O)sc2/C=N/NC(=O)c2ccccc2[O-])c1`, the EC50 is > 11 µM (inactive).

Regarding `Cc1cccc(N2C(=O)/C(=C/c3ccc(CN(CCC#N)S(C)(=O)=O)o3)C(=O)NC2=S)c1`, the EC50 is > 11 µM (inactive).

`COc1c(O)cccc1[C@@H](O)C1CCN(CCc2ccc(F)cc2)CC1`: the EC50 was > 11 µM (inactive).

On to `N=c1c(S(=O)(=O)c2ccc(Cl)cc2)cc2c(=O)n3ccccc3nc2n1C1CCCC1`, for which the EC50 is > 11 µM (inactive).

As to `FC(F)(F)c1cc(C(F)(F)F)n2nc(-c3sccc3-n3cccc3)cc2n1`, the EC50 is > 11 µM (inactive).

With `CN=C1S/C(=C\c2ccc(N3CCCC3)c(F)c2)C(=O)N1C`, the EC50 is > 11 µM (inactive).

On to `Cc1ccc(S(=O)(=O)N(CCCN2CCCC2=O)Cc2cc3c(C)ccc(C)c3[nH]c2=O)cc1`, for which the EC50 is > 11 µM (inactive).

`NS(=O)(=O)c1ccc(N=Nc2c[nH]c(=O)c(O)c2)cc1`: the EC50 was > 11 µM (inactive).

`CC1(OC(=O)c2ccco2)C(=O)C=C2C=C(c3ccsc3)OC=C2C1=O` (centres undefined): the EC50 is > 11 µM (inactive).

Consider `CCOc1ccc2nc3cc(NCc4ccc(OC)cc4)ccc3c(N)c2c1`, for which the EC50 is > 11 µM (inactive).

As for `COC(=O)CCCC1=CC2=CC(=O)C(C)(OC(=O)c3cccs3)C(=O)C2=CO1` (centres undefined), the EC50 was > 11 µM (inactive).

For the compound `CC(=O)C1=C(c2ccccc2)N(C(C)=O)n2c(C)nnc2S1`, the EC50 was > 11 µM (inactive).

With `COc1ccc(-c2cn[nH]c2-c2ccc(OCC(=O)NN)cc2O)cc1OC`, the EC50 was > 11 µM (inactive).

With `Cc1cccc(-c2c3c(=O)n(C)c(=O)n(C)c3c3cccnn23)c1`, the EC50 is > 11 µM (inactive).

Regarding `CC(C)(C)OC(=O)NCCCC1=CC2=CC(=O)C(C)(OC(=O)c3ccc(Cl)nc3)C(=O)C2=CO1` (centres undefined), the EC50 is > 11 µM (inactive).

Consider `COCC1CCN(C(=O)CC2C(=O)NCCN2Cc2cccc(Oc3ccccc3)c2)CC1` (centres undefined), for which the EC50 is > 11 µM (inactive).

For the compound `CC(=O)Nc1cccc(Oc2nc(-c3ccccn3)nc3ccccc23)c1`, the EC50 was > 11 µM (inactive).

Consider `COc1cc(O)c(C(=O)O)c(-c2cc(O)c(O)cc2C)c1`, for which the EC50 is > 11 µM (inactive).

As for `CCN(CC)c1nc(-c2nn[nH]n2)nc(N(CC)CC)n1`, the EC50 was > 11 µM (inactive).

As for `CCOC(=O)c1ccc(-c2ccc(C=O)o2)cc1`, the EC50 is > 11 µM (inactive).

For the compound `CC1=NN(C(N)=S)C(=O)C1N=Nc1ccc(S(N)(=O)=O)cc1` (centres undefined), the EC50 is > 11 µM (inactive).

With `COC(=O)CCC(=O)OC1(C)C(=O)C=C2C=C(c3ccsc3)OC=C2C1=O` (centres undefined), the EC50 is > 11 µM (inactive).

Regarding `CCCSc1nnc2nc3c(nn12)c1ccccc1n3C`, the EC50 was > 11 µM (inactive).

As to `OCCCNc1ncnc2sc3c(c12)CCN(Cc1ccccc1)C3`, the EC50 is > 11 µM (inactive).
